Laboratory results: publication PMC10525135, “Computationally Designed AMPs with Antibacterial and Antibiofilm Activity against MDR Acinetobacter baumannii” (Antibiotics, 2023)
Residues, ends and D or L forms follow the SMILES beside them.

How the values were obtained:
AB5075 [1] = experiment: Membrane depolarization assay (DiSC3(5)); assay type: cell-based, Acinetobacter baumannii; details: 50 µg/mL, DiSC3(5) fluorescence, 20 min, versus untreated bacteria
Protocol: A membrane depolarization assay was performed using a cationic dye, 3,3′-dipropylthiadicarbocyanine iodide (DiSC3(5)) as we previously described, with some modifications. Briefly, AB5075 was grown overnight on a Tryptic Soy agar, and opaque colonies were emulsified in DPBS (Gibco) until the 0.5 McFarland standard was achieved (~1 × 10^8 CFU/mL). A bacterial suspension of 4 × 10^7 CFU/mL was prepared and washed twice with DPBS, and then bacteria were resuspended in DPBS containing 10 µg/mL of DiSC3(5). An aliquot of 100 µL of the bacteria DiSC3(5) suspension was added to a black 96-well flat plate (Ultracruz Polypropylene Microplate sc-204462, Santacruz, CA, USA). The plate was incubated at room temperature in BioTek Cytation 5 and monitored until fluorescence stopped decreasing. An aliquot of 100 µL of peptide or DPBS (the untreated control) was added to each well (a final concentration of peptide of 50 µg/mL) and the plate was immediately returned to the plate reader. […] Readings were taken every 15 s for 20 min (excitation = 622 nm; emission = 670 nm). The experiment was repeated twice.

AB5075 [2] = experiment: Membrane permeabilization assay (ethidium bromide uptake); assay type: cell-based, Acinetobacter baumannii; details: 50 µg/mL, 10 µM ethidium bromide, 20 min at 37 °C, versus untreated control
Protocol: Membrane permeabilization was assessed using ethidium bromide uptake after peptide exposure, as we have previously described. AB5075 was grown on a Tryptic Soy agar for 18–24 h. Colonies presenting opaque morphology were picked and resuspended in DPBS (Gibco, Waltham, MA, USA) to achieve 0.1 OD600. A total of 180 µL of the bacterial suspension was mixed with a final peptide concentration of 50 µg/mL and a final ethidium bromide concentration of 10 µM in a black 96-well flat plate (Ultracruz Polypropylene Microplate sc-204462, Santacruz, CA, USA). The plate was transferred immediately to BioTek Cytation 5 (Santa Clara, CA, USA) for fluorescence intensity readings every 2 min for 20 min at 37 °C (excitation: 535 nm; emission: 590 nm). The relative fluorescence units (RFUs) were calculated. Tested samples minus no peptide control that has EtBr. LL-37 and polymyxin B were used as the controls in this experiment. The experiment was run in three replicates twice. Student’s t-test was used to determine statistical significance.

Galleria mellonella = experiment: Waxworm toxicity testing; details: 10 µg in 10 µL PBS injected per worm, 10 worms per group, 72 h
Protocol: Galleria mellonella were obtained from Vanderhorst Wholesale (Saint Mary’s, OH, USA), and 10 worms with equal weights between 200 to 300 mg were assigned to each group. […] The experiment was performed twice, and the results were analyzed by the Mantel–Cox test.

With `CC[C@H](C)CCCCC(=O)N[C@@H](CCN)C(=O)N[C@H](C(=O)N[C@@H](CCN)C(=O)N[C@H]1CCNC(=O)[C@H]([C@@H](C)O)NC(=O)[C@H](CCN)NC(=O)[C@H](CCN)NC(=O)[C@H](CC(C)C)NC(=O)[C@@H](Cc2ccccc2)NC(=O)[C@H](CCN)NC1=O)[C@@H](C)O` [Polymyxin B] (HELM PEPTIDE1{[CC[C@H](C)CCCCC(=O)[*:2]].[Dab].T.[Dab].[Dab].[Dab].[dF].L.[Dab].[Dab].T}$PEPTIDE1,PEPTIDE1,5:R3-11:R2$$$V2.0; N-terminus assumed; bridges inferred) the Membrane depolarization (AB5075 [1]) was “significant membrane depolarization effect”, the Membrane permeabilization (AB5075 [2]) was “disrupted bacterial membranes” and the Survival of worms (Galleria mellonella) was 80%.
